What was measured:
Assay in all cases: Competitive isoTOP-ABPP in situ (fragment-treated cells)
Type in all cases: cell-based
[1] = biological target: cysteines in MDA-MB-231 and Ramos cells (Homo sapiens, UniProt P46109); details: 200 μM, insitu, 231
[2] = biological target: T1, cysteines in MDA-MB-231 and Ramos cells (Homo sapiens, UniProt Q9NQ88)
T1 sequence (Q9NQ88 1-270): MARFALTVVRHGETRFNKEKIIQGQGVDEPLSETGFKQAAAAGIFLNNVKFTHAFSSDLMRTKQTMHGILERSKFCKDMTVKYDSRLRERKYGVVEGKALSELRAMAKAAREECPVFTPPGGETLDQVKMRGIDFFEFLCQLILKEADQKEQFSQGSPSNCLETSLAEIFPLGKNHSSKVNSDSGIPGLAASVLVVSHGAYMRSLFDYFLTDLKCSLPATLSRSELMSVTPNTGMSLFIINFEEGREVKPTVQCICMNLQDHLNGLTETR

[3] = biological target: cysteines in MDA-MB-231 and Ramos cells (Homo sapiens, UniProt O60825); details: 200 μM, insitu
Sequence of cysteines in MDA-MB-231 and Ramos cells (Homo sapiens, UniProt O60825) (O60825 whole entry): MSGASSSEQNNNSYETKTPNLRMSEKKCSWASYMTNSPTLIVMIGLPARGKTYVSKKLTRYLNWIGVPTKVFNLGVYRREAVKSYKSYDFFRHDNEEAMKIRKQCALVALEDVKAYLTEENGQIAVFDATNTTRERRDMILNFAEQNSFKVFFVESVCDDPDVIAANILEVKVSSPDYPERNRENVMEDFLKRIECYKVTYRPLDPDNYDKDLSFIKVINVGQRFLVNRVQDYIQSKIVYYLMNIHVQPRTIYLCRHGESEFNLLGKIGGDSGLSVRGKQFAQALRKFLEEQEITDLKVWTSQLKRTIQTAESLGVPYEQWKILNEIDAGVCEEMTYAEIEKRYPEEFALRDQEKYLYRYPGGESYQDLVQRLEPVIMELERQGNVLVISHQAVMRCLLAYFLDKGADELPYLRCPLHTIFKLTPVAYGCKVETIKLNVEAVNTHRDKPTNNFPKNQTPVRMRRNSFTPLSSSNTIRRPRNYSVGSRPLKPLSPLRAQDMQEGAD

[4] = biological target: T2, cysteines in MDA-MB-231 and Ramos cells (Homo sapiens, UniProt Q5T440); details: 200 μM, insitu, 231
T2 sequence (Q5T440 40-356): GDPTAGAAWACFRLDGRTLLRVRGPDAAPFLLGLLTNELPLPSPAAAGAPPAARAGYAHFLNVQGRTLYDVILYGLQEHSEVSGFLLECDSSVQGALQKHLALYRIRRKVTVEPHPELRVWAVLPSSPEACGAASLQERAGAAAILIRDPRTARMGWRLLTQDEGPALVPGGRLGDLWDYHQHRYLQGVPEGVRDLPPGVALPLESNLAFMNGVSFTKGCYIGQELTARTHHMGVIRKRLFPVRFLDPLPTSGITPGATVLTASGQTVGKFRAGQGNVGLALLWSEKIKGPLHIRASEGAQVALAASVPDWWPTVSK

[5] = biological target: T3, cysteines in MDA-MB-231 and Ramos cells (Homo sapiens, UniProt Q96RU2)
T3 sequence (Q96RU2 1-1077): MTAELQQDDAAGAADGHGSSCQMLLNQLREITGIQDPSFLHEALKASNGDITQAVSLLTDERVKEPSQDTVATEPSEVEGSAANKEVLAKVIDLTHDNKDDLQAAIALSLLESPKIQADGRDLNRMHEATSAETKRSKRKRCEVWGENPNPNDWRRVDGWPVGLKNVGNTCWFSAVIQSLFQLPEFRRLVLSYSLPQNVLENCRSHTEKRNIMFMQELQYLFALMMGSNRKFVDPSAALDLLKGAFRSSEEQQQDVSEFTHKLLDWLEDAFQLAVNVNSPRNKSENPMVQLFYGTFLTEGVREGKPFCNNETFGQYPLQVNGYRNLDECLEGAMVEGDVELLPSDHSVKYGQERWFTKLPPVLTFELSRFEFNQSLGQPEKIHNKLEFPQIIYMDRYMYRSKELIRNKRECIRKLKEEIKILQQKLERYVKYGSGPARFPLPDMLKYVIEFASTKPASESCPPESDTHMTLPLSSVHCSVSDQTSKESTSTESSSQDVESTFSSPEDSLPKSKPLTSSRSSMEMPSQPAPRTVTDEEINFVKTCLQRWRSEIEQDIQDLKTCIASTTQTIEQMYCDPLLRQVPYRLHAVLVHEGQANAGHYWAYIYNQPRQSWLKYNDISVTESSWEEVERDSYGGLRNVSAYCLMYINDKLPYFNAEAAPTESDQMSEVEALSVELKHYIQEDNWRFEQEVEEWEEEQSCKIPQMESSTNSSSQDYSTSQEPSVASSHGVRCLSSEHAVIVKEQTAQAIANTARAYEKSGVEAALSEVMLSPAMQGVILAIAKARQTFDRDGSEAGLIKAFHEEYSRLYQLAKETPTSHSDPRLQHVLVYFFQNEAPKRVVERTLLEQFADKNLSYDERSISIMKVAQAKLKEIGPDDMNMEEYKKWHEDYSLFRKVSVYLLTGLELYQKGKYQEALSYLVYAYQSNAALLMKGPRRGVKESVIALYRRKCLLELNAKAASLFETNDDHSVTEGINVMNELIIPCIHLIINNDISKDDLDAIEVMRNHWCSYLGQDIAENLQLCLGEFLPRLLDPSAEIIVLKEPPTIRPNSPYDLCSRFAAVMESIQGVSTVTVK

[6] = biological target: cysteines in MDA-MB-231 and Ramos cells (Homo sapiens, UniProt Q8NBS9)
Sequence of cysteines in MDA-MB-231 and Ramos cells (Homo sapiens, UniProt Q8NBS9) (Q8NBS9 33-432): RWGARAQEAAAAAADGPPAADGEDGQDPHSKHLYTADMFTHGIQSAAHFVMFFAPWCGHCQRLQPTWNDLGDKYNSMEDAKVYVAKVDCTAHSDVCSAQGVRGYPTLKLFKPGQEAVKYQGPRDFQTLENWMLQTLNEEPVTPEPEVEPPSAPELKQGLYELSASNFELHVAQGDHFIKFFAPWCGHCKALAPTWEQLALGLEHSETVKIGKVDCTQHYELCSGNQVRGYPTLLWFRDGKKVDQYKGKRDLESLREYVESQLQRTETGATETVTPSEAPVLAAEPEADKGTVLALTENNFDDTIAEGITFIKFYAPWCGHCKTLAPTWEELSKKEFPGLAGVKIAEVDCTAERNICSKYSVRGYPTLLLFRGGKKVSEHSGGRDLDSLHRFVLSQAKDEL

[7] = biological target: T4, cysteines in MDA-MB-231 and Ramos cells (Homo sapiens, UniProt P53384); details: 200 μM, insitu, 231
T4 sequence (P53384 1-320): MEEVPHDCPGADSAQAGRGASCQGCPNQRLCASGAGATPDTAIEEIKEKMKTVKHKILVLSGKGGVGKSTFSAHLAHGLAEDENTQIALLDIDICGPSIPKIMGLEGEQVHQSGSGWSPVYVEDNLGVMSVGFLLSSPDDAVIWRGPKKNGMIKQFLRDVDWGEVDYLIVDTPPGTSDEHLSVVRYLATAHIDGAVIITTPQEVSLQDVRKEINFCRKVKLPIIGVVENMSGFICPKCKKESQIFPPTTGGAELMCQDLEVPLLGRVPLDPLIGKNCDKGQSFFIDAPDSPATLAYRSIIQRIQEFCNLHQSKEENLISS

[8] = biological target: cysteines in MDA-MB-231 and Ramos cells (Homo sapiens, UniProt Q96NY7)
Sequence of cysteines in MDA-MB-231 and Ramos cells (Homo sapiens, UniProt Q96NY7) (Q96NY7 whole entry): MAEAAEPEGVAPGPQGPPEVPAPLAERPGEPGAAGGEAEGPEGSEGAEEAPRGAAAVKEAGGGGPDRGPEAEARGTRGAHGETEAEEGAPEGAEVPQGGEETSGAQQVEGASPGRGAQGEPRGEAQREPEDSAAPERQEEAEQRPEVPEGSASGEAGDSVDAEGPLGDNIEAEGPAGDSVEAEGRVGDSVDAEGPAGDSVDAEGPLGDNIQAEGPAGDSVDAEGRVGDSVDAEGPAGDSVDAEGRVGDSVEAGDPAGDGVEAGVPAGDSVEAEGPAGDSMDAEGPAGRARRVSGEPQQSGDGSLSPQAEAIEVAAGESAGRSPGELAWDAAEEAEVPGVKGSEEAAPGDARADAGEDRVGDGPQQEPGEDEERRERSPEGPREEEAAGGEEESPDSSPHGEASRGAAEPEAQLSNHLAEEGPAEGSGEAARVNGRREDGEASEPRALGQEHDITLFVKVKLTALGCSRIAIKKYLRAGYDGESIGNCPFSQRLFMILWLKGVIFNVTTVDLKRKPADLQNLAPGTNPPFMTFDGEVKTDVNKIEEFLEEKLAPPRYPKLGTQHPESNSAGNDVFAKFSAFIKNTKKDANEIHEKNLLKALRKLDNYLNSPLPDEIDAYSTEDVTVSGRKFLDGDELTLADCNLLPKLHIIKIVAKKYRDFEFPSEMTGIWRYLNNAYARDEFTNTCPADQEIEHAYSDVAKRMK

[9] = biological target: cysteines in MDA-MB-231 and Ramos cells (Homo sapiens, UniProt P51812)
Sequence of cysteines in MDA-MB-231 and Ramos cells (Homo sapiens, UniProt P51812) (P51812 whole entry): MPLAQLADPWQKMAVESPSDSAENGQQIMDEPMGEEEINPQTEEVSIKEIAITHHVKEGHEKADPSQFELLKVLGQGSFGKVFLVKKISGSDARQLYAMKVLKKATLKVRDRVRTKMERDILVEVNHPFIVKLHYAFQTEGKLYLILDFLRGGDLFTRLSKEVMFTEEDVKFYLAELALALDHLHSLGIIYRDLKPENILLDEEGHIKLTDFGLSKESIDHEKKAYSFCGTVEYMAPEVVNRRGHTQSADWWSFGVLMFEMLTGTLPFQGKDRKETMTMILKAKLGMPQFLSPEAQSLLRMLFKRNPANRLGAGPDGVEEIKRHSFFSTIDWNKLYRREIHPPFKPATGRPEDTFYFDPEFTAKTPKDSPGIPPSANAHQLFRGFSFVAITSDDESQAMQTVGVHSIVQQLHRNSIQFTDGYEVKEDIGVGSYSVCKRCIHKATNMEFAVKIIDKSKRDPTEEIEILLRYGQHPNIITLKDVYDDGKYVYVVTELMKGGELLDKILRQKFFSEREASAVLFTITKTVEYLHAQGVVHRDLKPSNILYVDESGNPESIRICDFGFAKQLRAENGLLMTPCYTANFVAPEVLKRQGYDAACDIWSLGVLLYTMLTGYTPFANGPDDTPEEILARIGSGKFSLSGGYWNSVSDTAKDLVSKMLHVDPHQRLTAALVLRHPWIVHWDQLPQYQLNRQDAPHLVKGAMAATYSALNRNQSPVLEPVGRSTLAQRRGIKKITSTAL

[10] = biological target: cysteines in MDA-MB-231 and Ramos cells (Homo sapiens, UniProt P27707)
Sequence of cysteines in MDA-MB-231 and Ramos cells (Homo sapiens, UniProt P27707) (P27707 whole entry): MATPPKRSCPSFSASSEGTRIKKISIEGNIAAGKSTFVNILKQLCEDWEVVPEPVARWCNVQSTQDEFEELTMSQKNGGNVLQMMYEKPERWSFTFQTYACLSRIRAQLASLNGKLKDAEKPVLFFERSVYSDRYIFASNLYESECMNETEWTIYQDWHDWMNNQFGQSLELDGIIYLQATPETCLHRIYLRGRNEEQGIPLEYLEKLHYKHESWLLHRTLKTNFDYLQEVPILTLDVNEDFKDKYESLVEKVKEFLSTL

[11] = biological target: cysteines in MDA-MB-231 and Ramos cells (Homo sapiens, UniProt Q6XZF7); details: 200 μM, insitu
Sequence of cysteines in MDA-MB-231 and Ramos cells (Homo sapiens, UniProt Q6XZF7) (Q6XZF7 whole entry): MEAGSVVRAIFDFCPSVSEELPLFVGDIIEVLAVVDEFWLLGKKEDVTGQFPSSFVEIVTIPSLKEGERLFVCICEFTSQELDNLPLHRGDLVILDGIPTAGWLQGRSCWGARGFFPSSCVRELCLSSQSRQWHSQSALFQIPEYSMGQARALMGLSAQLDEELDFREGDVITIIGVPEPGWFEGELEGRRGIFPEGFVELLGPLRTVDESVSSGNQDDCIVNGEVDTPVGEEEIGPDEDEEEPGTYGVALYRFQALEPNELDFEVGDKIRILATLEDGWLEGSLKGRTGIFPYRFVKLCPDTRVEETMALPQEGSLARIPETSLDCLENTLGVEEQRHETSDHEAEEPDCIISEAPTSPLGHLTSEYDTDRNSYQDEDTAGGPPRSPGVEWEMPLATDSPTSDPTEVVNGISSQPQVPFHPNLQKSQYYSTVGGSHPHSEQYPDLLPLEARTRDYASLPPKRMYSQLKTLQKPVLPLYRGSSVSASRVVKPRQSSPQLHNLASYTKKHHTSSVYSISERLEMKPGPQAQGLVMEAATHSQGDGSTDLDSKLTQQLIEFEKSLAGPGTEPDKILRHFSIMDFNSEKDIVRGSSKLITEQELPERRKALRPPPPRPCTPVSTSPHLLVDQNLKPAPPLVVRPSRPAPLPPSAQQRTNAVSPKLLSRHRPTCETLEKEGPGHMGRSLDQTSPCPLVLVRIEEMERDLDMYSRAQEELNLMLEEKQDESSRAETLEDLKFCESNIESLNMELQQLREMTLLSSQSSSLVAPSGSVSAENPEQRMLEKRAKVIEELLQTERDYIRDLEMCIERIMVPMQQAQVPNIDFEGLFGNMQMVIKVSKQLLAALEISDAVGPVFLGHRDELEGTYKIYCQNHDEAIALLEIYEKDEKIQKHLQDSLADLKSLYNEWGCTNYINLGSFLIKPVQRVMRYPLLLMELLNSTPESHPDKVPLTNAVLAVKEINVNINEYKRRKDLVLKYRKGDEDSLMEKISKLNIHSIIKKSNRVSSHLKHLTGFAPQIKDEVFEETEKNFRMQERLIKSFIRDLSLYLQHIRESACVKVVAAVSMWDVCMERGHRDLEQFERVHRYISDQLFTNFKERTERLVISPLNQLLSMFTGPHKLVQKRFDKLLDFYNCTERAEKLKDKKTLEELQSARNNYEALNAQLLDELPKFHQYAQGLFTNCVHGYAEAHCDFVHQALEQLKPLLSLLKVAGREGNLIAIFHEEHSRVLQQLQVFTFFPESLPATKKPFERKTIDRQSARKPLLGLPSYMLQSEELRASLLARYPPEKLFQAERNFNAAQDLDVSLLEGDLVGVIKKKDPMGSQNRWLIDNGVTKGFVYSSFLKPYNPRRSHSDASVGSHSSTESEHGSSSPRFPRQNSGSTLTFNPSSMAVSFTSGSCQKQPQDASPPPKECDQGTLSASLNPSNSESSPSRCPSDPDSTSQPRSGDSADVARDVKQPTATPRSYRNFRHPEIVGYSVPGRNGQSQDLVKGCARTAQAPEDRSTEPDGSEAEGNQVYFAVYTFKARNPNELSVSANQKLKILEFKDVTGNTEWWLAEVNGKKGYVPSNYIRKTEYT

Sequence of cysteines in MDA-MB-231 and Ramos cells (Homo sapiens, UniProt P46109) (P46109 whole entry): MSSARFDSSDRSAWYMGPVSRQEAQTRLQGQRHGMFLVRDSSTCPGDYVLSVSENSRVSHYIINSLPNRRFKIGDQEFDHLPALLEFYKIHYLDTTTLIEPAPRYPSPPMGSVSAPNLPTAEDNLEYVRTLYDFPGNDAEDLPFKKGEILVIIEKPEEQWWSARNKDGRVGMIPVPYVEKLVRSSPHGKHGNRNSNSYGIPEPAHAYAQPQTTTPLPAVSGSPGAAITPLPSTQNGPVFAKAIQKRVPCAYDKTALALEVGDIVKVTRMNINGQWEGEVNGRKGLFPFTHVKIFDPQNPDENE

Row | isoTOP-ABPP ratio Q9NQ88_C114 ([2]; 200 μM, insitu, 231) | isoTOP-ABPP ratio Q9NQ88_C161 ([2]; 200 μM, insitu, 231) | isoTOP-ABPP ratio Q8NBS9_C350 ([6]; 200 μM, insitu, 231) | isoTOP-ABPP ratio P46109_C249 [1] | isoTOP-ABPP ratio Q96NY7_C487 ([8]; 200 μM, insitu, 231) | isoTOP-ABPP ratio O60825_C158 [3]; 231 | isoTOP-ABPP ratio P27707_C9 ([10]; 200 μM, insitu, 231) | isoTOP-ABPP ratio Q5T440_C170 [4] | Compound | other results
1 | – | – | – | – | – | – | – | – | COc1ccc2c(c1)CCCN2C(=O)CCl [compound 2] | isoTOP-ABPP reactivity P46109_0249 CRKL [1]: 20.0; isoTOP-ABPP reactivity Q9NQ88_C114 TIGAR ([2]; 200 μM, insitu, 231): 2.8; isoTOP-ABPP reactivity Q9NQ88_C161 TIGAR ([2]; 200 μM, insitu, 231): 6.0; isoTOP-ABPP reactivity O60825_C158 PFKFB2 [3]; 231: 0.7; isoTOP-ABPP reactivity Q5T440_C170 IBA57 [4]: 14.0
2 | 0.4 | 0.6 | 1.1 | – | – | – | – | – | CC(C)CCOCCNC(=O)CCl [compound 27] | isoTOP-ABPP ratio, Q96RU2_C171 ([5]; 200 μM, insitu, 231): 1.1
3 | – | – | 9.4 | 20.0 | 20.0 | 0.8 | 1.4 | – | O=C(CCl)NC(=O)NC12CC3CC(CC(C3)C1)C2 [compound 12] | isoTOP-ABPP ratio, cysteine P53384_C235 [7]: 0.5; isoTOP-ABPP ratio, cysteine Q96RU2_C171 ([5]; 200 μM, insitu, 231): 20.0; isoTOP-ABPP ratio, cysteine P51812_C436 ([9]; 200 μM, insitu, 231): 1.4
4 | 0.9 | 1.0 | – | 0.9 | 1.2 | 1.4 | 1.3 | 1.6 | O=C(CCl)NC12CC3CC(CC(C3)C1)C2 [compound 21] | isoTOP-ABPP ratio, cysteine Q6XZF7_C691 [11]; 231: 0.8
5 | 2.1 | 4.6 | – | 20.0 | 3.2 | 0.7 | 1.9 | 5.7 | O=C(CCl)N1CCN(S(=O)(=O)c2ccccc2F)CC1 [compound 10] | isoTOP-ABPP ratio Q9NQ88_C161 ([2]; 200 μM, insitu, ramos): 2.1; isoTOP-ABPP ratio O60825_C158 ([3]; ramos): 1.2; isoTOP-ABPP ratio, cysteine Q6XZF7_C691 [11]; 231: 20.0; isoTOP-ABPP ratio, cysteine Q6XZF7_C691 ([11]; ramos): 20.0; isoTOP-ABPP ratio P27707_C9 ([10]; 200 μM, insitu, ramos): 1.7; isoTOP-ABPP ratio Q8NBS9_C350 ([6]; 200 μM, insitu, ramos): 1.4
6 | 0.6 | – | 0.9 | – | 0.4 | 0.7 | 0.4 | 0.7 | Cc1ccc(C=C(C#N)C(=O)NCCN2CCOCC2)cc1 [compound 41] | isoTOP-ABPP ratio P53384_C235 [7]: 0.2; isoTOP-ABPP ratio P51812_C436 ([9]; 200 μM, insitu, 231): 4.5
7 | – | – | – | – | – | – | – | – | Cn1cc(S(=O)(=O)N2CCOCC2)cc1C(=O)NC(=O)CCl [compound 11] | isoTOP-ABPP ratio Q96NY7_C487 ([8]; 100 μM in situ 231): 3.1; isoTOP-ABPP ratio Q9NQ88_C114 ([2]; 100 μM in situ 231): 0.8; isoTOP-ABPP ratio Q9NQ88_C161 ([2]; 100 μM in situ 231): 0.9; isoTOP-ABPP ratio, cysteine Q96RU2_C171 ([5]; 100 μM in situ 231): 2.2; isoTOP-ABPP ratio, cysteine P51812_C436 ([9]; 100 μM in situ 231): 0.5; isoTOP-ABPP ratio P27707_C9 ([10]; 100 μM in situ 231): 0.5; isoTOP-ABPP ratio Q8NBS9_C350 ([6]; 100 μM in situ 231): 3.4
8 | – | – | 1.1 | – | – | – | – | – | COc1ccccc1OCCNC(=O)CCl [compound 28] | isoTOP-ABPP ratio, Q96RU2_C171 ([5]; 200 μM, insitu, 231): 1.1
